pIC50: −log10 of the molar value.
The molecules below were run on Aβ42 production in rat primary neuronal culture (assay: Quantification of Aβ peptide in culture of neurons from rat fetus brain (Aβ ELISA)). Conditions: Primary cortical neuron, 72 h, rat primary cortical neurons (embryonic day 18 Wistar), three days after addition of the compound, Aβx-42 ELISA of medium, read-out: Aβ42 production reducing effect IC50.
Format: cell-based
Description: Quantification of Aβ Peptide in Culture of Neurons from Rat Fetus Brain
(1) Rat Primary Neuronal Culture
Primary neuronal cultures were prepared from the cerebral cortex of embryonic day 18 Wistar rats (Charles River Japan, Yokohama, Japan). Specifically, the embryos were aseptically removed from pregnant rats under ether anesthesia. The brain was isolated from the embryo and immersed in an ice-cold L-15 medium (Invitrogen Corp. Cat #11415-064, Carlsbad, Calif., USA, or SIGMA L1518, for example). The cerebral cortex was collected from the isolated brain under a stereoscopic microscope. The cerebral cortex fragments collected were enzymatically treated in an enzyme solution containing 0.25% trypsin (Invitrogen Corp. Cat #15050-065, Carlsbad, Calif., USA) and 0.01% DNase (Sigma D5025, St. Louis, Mo., USA) at 37° C. for 30 minutes to disperse the cells. Here, the enzymatic reaction was stopped by adding inactivated horse serum to the solution. The enzymatically treated solution was centrifuged at 1,500 rpm for five minutes to remove the supernatant. 5 to 10 ml of a medium was added to the resulting cell mass. Neurobasal medium (Invitrogen Corp. Cat #21103-049, Carlsbad, Calif., USA) supplemented with 2% B27 supplement (Invitrogen Corp. Cat #17504-044, Carlsbad, Calif., USA), 25 μM 2-mercaptoethanol (2-ME, WAKO Cat #139-06861, Osaka, Japan), 0.5 mM L-glutamine (Invitrogen Corp. Cat #25030-081, Carlsbad, Calif., USA), and Antibiotics-Antimycotics (Invitrogen Corp. Cat #15240-062, Carlsbad, Calif., USA) was used as the medium (Neurobasal/B27/2-ME). However, the above Neurobasal medium not supplemented with 2-ME (Neurobasal/B27) was used for the assay. The cells were redispersed by mild pipetting of the cell mass to which the medium was added. The cell dispersion was filtered through a 40-μm nylon mesh (Cell Strainer, Cat #35-2340, Becton Dickinson Labware, Franklin Lakes, N.J., USA) to remove the remaining cell mass, and thus a neuronal cell suspension was obtained. The neuronal cell suspension was diluted with the medium and then plated in a volume of 100 μl/well at an initial cell density of 5×10^5 cells/cm^2 in a 96-well polystyrene culture plate pre-coated with poly-L or D-lysine (Falcon Cat #35-3075, Becton Dickinson Labware, Franklin Lakes, N.J., USA coated with poly-L-lysine using the method shown below, or BIOCOAT™ cell environments Poly-D-lysine cell ware 96-well plate, Cat #35-6461, Becton Dickinson Labware, Franklin Lakes, N.J., USA). Poly-L-lysine coating was carried out as follows. 100 μg/ml of a poly-L-lysine (SIGMA P2636, St. Louis, Mo., USA) solution was aseptically prepared with a 0.15 M borate buffer (pH 8.5). 100 μl/well of the solution was added to the 96-well polystyrene culture plate and incubated at room temperature for one or more hours or at 4° C. overnight or longer. The coated 96-well polystyrene culture plate was washed with sterile water four or more times, and then dried or rinsed with, for example, sterile PBS or medium, and used for cell plating. The plated cells were cultured in the culture plate at 37° C. in 5% CO2-95% air for one day. Then, the total amount of the medium was replaced with a fresh Neurobasal™/B27/2-ME medium, and then the cells were cultured for further three days.
The drug was added to the culture plate on Day 4 of culture as follows. The total amount of the medium was removed from the wells, and 180 μl/well of Neurobasal medium not containing 2-ME and containing 2% B-27 (Neurobasal/B27) was added thereto. A solution of the test compound in dimethyl sulfoxide (hereinafter abbreviated as DMSO) was diluted with Neurobasal/B27 at 10-fold of the final concentration. 20 μl/well of the dilution was added to and sufficiently mixed with the medium. The final DMSO concentration was 1% or less. Only DMSO was added to the control group.
The cells were cultured for three days after addition of the compound, and the total amount of the medium was collected. […]
For `COc1cc(/C=C/c2nc3n(n2)CCCC3(O)c2ccc(C(C)C)cc2)ccc1-n1cnc(C)c1` (single isomer, unassigned) [Example 55, (−)-8-(4-isopropylphenyl)-2-{(E)-2-[3-methoxy-4-(4-methyl-1H-imidazol-1-yl)phenyl]vinyl}-5,6,7,8-tetrahydro[1,2,4]triazolo[1,5-a]pyridin-8-ol], the pIC50 was 7.55. Work on `COc1cc(/C=C/c2nc3n(n2)CCC[C@]3(O)c2ccccc2F)ccc1-n1cnc(C)c1` (single isomer, unassigned) [Example 59, (−)-8-(2-fluorophenyl)-2-{(E)-2-[3-methoxy-4-(4-methyl-1H-imidazol-1-yl)phenyl]vinyl}-5,6,7,8-tetrahydro-[1,2,4]triazolo[1,5-a]pyridin-8-ol] yielded a pIC50 of 7.35. Work on `COc1cc(/C=C/c2nc3n(n2)CCCC3C2CCCN2Cc2ccccc2)ccc1-n1cnc(C)c1` (single isomer, unassigned) [Example 133, 8-(1-benzylpyrrolidin-2-yl)-2-{(E)-2-[3-methoxy-4-(4-methyl-1H-imidazol-1-yl)phenyl]vinyl}-5,6,7,8-tetrahydro[1,2,4]triazolo[1,5-a]pyridine] yielded a pIC50 of 7.19. Molecule `COc1nc(/C=C/c2nc3n(n2)CCCC3c2cc(F)c(F)c(F)c2)ccc1-n1cnc(C)c1` (single isomer, unassigned) [Example 169, (−)-2-{(E)-2-[6-methoxy-5-(4-methyl-1H-imidazol-1-yl)pyridin-2-yl]vinyl}-8-(3,4,5-trifluorophenyl)-5,6,7,8-tetrahydro-[1,2,4]triazolo[1,5-a]pyridine] has a pIC50 of 7.66. `COc1nc(/C=C/c2nc3n(n2)CCC[C@H]3c2ccc(F)c(F)c2)ccc1-n1cnc(C)c1` (single isomer, unassigned) [Example 171, (−)-8-(3,4-difluorophenyl)-2-{(E)-2-[6-methoxy-5-(4-methyl-1H-imidazol-1-yl)pyridin-2-yl]vinyl}-5,6,7,8-tetrahydro-[1,2,4]triazolo[1,5-a]pyridine] was tested, and the pIC50 was 7.77. Work on `COc1nc(/C=C/c2nc3n(n2)CCC[C@H]3c2ccc(F)cc2)ccc1-n1cnc(C)c1` (single isomer, unassigned) [Example 173, (−)-8-(4-fluorophenyl)-2-{(E)-2-[6-methoxy-5-(4-methyl-1H-imidazol-1-yl)pyridin-2-yl]vinyl}-5,6,7,8-tetrahydro-[1,2,4]triazolo[1,5-a]pyridine] yielded a pIC50 of 7.43. In the case of `COc1nc(/C=C/c2nc3n(n2)CCCC3c2cccc(F)c2)ccc1-n1cnc(C)c1` (single isomer, unassigned) [Example 189, (−)-8-(3-fluorophenyl)-2-{(E)-2-[6-methoxy-5-(4-methyl-1H-imidazol-1-yl)pyridin-2-yl]vinyl}-5,6,7,8-tetrahydro[1,2,4]triazolo[1,5-a]pyridine], the pIC50 was 7.37. With `COc1nc(/C=C/c2nc3n(n2)CCCC3c2cccc3ccccc23)ccc1-n1cnc(C)c1` (single isomer, unassigned) [Example 199, (+)-2-{(E)-2-[6-methoxy-5-(4-methyl-1H-imidazol-1-yl)pyridin-2-yl]vinyl}-8-(naphthalen-1-yl)-5,6,7,8-tetrahydro-[1,2,4]triazolo[1,5-a]pyridine] the pIC50 was 7.64. `COc1cc(/C=C/c2nc3n(n2)CCC[C@H]3c2ccc(F)cc2)cnc1-n1cnc(C)c1` (single isomer, unassigned) [Example 212, (−)-8-(4-fluorophenyl)-2-{(E)-2-[5-methoxy-6-(4-methyl-1H-imidazol-1-yl)pyridin-3-yl]vinyl}-5,6,7,8-tetrahydro-[1,2,4]triazolo[1,5-a]pyridine] gave a pIC50 of 7.00. `COc1cc(/C=C/c2nc3n(n2)CCC[C@H]3c2ccc(F)c(F)c2)cnc1-n1cnc(C)c1` (single isomer, unassigned) [Example 218, (−)-8-(3,4-difluorophenyl)-2-{(E)-2-[5-methoxy-6-(4-methyl-1H-imidazol-1-yl)pyridin-3-yl]vinyl}-5,6,7,8-tetrahydro-[1,2,4]triazolo[1,5-a]pyridine] gave a pIC50 of 7.16. Molecule `COc1cc(/C=C/c2nc3n(n2)CCCC3c2ccccc2C(F)(F)F)ccc1-n1cnc(C)c1` (single isomer, unassigned) [Example 311, (−)-2-{(E)-2-[3-methoxy-4-(4-methyl-1H-imidazol-1-yl)phenyl]vinyl}-8-(2-trifluoromethylphenyl)-5,6,7,8-tetrahydro-[1,2,4]triazolo[1,5-a]pyridine] has a pIC50 of 7.96. With `COc1cc(/C=C/c2nc3n(n2)CC[C@H]3c2ccccc2C(F)(F)F)ccc1-n1cnc(C)c1` (single isomer, unassigned) [Example 317, (−)-2-{(E)-2-[3-methoxy-4-(4-methyl-1H-imidazol-1-yl)phenyl]vinyl}-7-(2-trifluoromethylphenyl)-6,7-dihydro-5H-pyrrolo[1,2-b][1,2,4]triazole] the pIC50 was 7.60. With `COc1nc(/C=C/c2nc3n(n2)CCC[C@@H]3c2ccccc2C)ccc1-n1cnc(C)c1` (single isomer, unassigned) [Example 319, (−)-2-{(E)-2-[6-methoxy-5-(4-methyl-1H-imidazol-1-yl)pyridin-2-yl]vinyl}-8-(o-tolyl)-5,6,7,8-tetrahydro[1,2,4]triazolo[1,5-a]pyridine] the pIC50 was 7.82. Molecule `COc1nc(/C=C/c2nc3n(n2)CCC[C@@H]3c2cccc(C(F)(F)F)c2)ccc1-n1cnc(C)c1` (single isomer, unassigned) [Example 321, (−)-2-{(E)-2-[6-methoxy-5-(4-methyl-1H-imidazol-1-yl)pyridin-2-yl]vinyl}-8-(3-trifluoromethylphenyl)-5,6,7,8-tetrahydro[1,2,4]triazolo[1,5-a]pyridine] has a pIC50 of 7.64. Molecule `COc1nc(/C=C/c2nc3n(n2)CCCC3c2cc(F)ccc2C(F)(F)F)ccc1-n1cnc(C)c1` (single isomer, unassigned) [Example 329, (−)-8-(5-fluoro-2-trifluoromethylphenyl)-2-{(E)-2-[6-methoxy-5-(4-methyl-1H-imidazol-1-yl)pyridin-2-yl]vinyl}-5,6,7,8-tetrahydro-[1,2,4]triazolo[1,5-a]pyridine] has a pIC50 of 7.77. Molecule `COc1nc(/C=C/c2nc3n(n2)CCCC3c2c(F)cccc2C(F)(F)F)ccc1-n1cnc(C)c1` (single isomer, unassigned) [Example 331, (−)-8-(6-fluoro-2-trifluoromethylphenyl)-2-{(E)-2-[6-methoxy-5-(4-methyl-1H-imidazol-1-yl)pyridin-2-yl]vinyl}-5,6,7,8-tetrahydro-[1,2,4]triazolo[1,5-a]pyridine] has a pIC50 of 7.66. For `COc1nc(/C=C/c2nc3n(n2)CCC[C@@H]3c2cccc(F)c2C)ccc1-n1cnc(C)c1` (single isomer, unassigned) [Example 333, (−)-8-(3-fluoro-2-methylphenyl)-2-{(E)-2-[6-methoxy-5-(4-methyl-1H-imidazol-1-yl)pyridin-2-yl]vinyl}-5,6,7,8-tetrahydro-[1,2,4]triazolo[1,5-a]pyridine], the pIC50 was 8.00. For `Cc1cn(-c2ccc(/C=C/c3nc4n(n3)CCC[C@@H]4c3ccccc3C(F)(F)F)nc2OCC(F)F)cn1` (single isomer, unassigned) [Example 354, (−)-2-{(E)-2-[5-(4-methyl-1H-imidazol-1-yl)-6-(2,2-difluoroethoxy)pyridin-2-yl]vinyl}-8-(2-trifluoromethylphenyl)-5,6,7,8-tetrahydro-[1,2,4]triazolo[1,5-a]pyridine], the pIC50 was 7.43.

Reference: patent publication US9453000B2, “Polycyclic compound” (EISAI R&D MANAGEMENT CO., LTD., priority 2007, dated 2016)
